{"source": "paper PMC5903252", "about": "(British Journal of Clinical Pharmacology, 2018)", "key": {"[1]": {"system": "aPTT", "experiment": "Activated partial thromboplastin time", "type": "in vivo, human", "details": "for Mean aPTT (± SEM) / aPTT % Change from baseline: immediately prior to the end of infusion"}, "[2]": {"system": "PT/INR", "experiment": "Prothrombin time/international normalized ratio", "type": "in vivo, human", "details": "part A and part B"}, "[3]": {"experiment": "Safety and tolerability, adverse events in healthy subjects", "type": "in vivo, human"}, "[4]": {"experiment": "Renal safety assessment", "type": "in vivo, human"}, "[5]": {"system": "rabbit models", "details": "preclinical; cited from earlier work"}, "[6]": {"experiment": "Plasma pharmacokinetics of BMS-962212 after IV infusion", "details": "human, in vivo"}, "[7]": {"details": "part A 2-h IV infusion 1.5 mg h^−1"}, "[8]": {"details": "part A 2-h IV infusion 4 mg h^−1"}, "[9]": {"details": "part A 2-h IV infusion 10 mg h^−1"}, "[10]": {"details": "part A 2-h IV infusion 25 mg h^−1"}, "[11]": {"details": "part B 5-day IV infusion 1 mg h^−1, Japanese subjects"}, "[12]": {"details": "part B 5-day IV infusion 1 mg h^−1, non-Japanese subjects"}, "[13]": {"details": "part B 5-day IV infusion 3 mg h^−1, Japanese subjects"}, "[14]": {"details": "part B 5-day IV infusion 3 mg h^−1, non-Japanese subjects"}, "[15]": {"details": "part B 5-day IV infusion 9 mg h^−1, Japanese subjects"}, "[16]": {"details": "part B 5-day IV infusion 9 mg h^−1, non-Japanese subjects"}, "[17]": {"details": "part B 5-day IV infusion 20 mg h^−1, Japanese subjects"}, "[18]": {"details": "part B 5-day IV infusion 20 mg h^−1, non-Japanese subjects"}, "[19]": {"details": "part A panel 1, 1.5 mg h^−1 2-h IV infusion, peak at 12 h after initiation"}}, "note": "“Also recorded” adds a separate entry of the source."}
{"smiles": "CN1CCN(c2cccc3c2CCN(C(=O)/C=C/c2c(-n4cnnn4)ccc(Cl)c2F)[C@@H]3C(=O)Nc2ccc(C(=O)O)cc2)C(=O)C1", "note": "[BMS‐962212]", "values": [{"measurement": "Mean aPTT (± SEM)", "setting": "[1]; [7]", "result": "45.8 ± 2.5", "unit": "s"}, {"measurement": "aPTT % Change from baseline", "setting": "[1]; [7]", "result": 35, "unit": "%"}, {"measurement": "Mean aPTT (± SEM)", "setting": "[1]; [8]", "result": "49.2 ± 2.6", "unit": "s"}, {"measurement": "aPTT % Change from baseline", "setting": "[1]; [8]", "result": 51, "unit": "%"}, {"measurement": "Mean aPTT (± SEM)", "setting": "[1]; [9]", "result": "53.0 ± 4.2", "unit": "s"}, {"measurement": "aPTT % Change from baseline", "setting": "[1]; [9]", "result": 81, "unit": "%"}, {"measurement": "Mean aPTT (± SEM)", "setting": "[1]; [10]", "result": "61.3 ± 3.8", "unit": "s"}, {"measurement": "aPTT % Change from baseline", "setting": "[1]; [10]", "result": 94, "unit": "%"}, {"measurement": "maximum mean aPTT change from baseline", "setting": "[1]; part B 20 mg h^−1", "result": 92, "unit": "%"}, {"measurement": "Mean aPTT (± SEM)", "setting": "[1]; [11]", "result": "37.7 ± 2.0", "unit": "s"}, {"measurement": "aPTT % Change from baseline", "setting": "[1]; [11]", "result": 31, "unit": "%"}, {"measurement": "Mean aPTT (± SEM)", "setting": "[1]; [12]", "result": "42.4 ± 1.8", "unit": "s"}, {"measurement": "aPTT % Change from baseline", "setting": "[1]; [12]", "result": 31, "unit": "%"}, {"measurement": "Mean aPTT (± SEM)", "setting": "[1]; [13]", "result": "46.1 ± 1.2", "unit": "s"}, {"measurement": "aPTT % Change from baseline", "setting": "[1]; [13]", "result": 47, "unit": "%"}, {"measurement": "Mean aPTT (± SEM)", "setting": "[1]; [14]", "result": "44.0 ± 1.9", "unit": "s"}, {"measurement": "aPTT % Change from baseline", "setting": "[1]; [14]", "result": 49, "unit": "%"}, {"measurement": "Mean aPTT (± SEM)", "setting": "[1]; [15]", "result": "52.0 ± 1.3", "unit": "s"}, {"measurement": "aPTT % Change from baseline", "setting": "[1]; [15]", "result": 63, "unit": "%"}, {"measurement": "Mean aPTT (± SEM)", "setting": "[1]; [16]", "result": "52.6 ± 6.8", "unit": "s"}, {"measurement": "aPTT % Change from baseline", "setting": "[1]; [16]", "result": 76, "unit": "%"}, {"measurement": "Mean aPTT (± SEM)", "setting": "[1]; [17]", "result": "63.0 ± 4.9", "unit": "s"}, {"measurement": "aPTT % Change from baseline", "setting": "[1]; [17]", "result": 92, "unit": "%"}, {"measurement": "Mean aPTT (± SEM)", "setting": "[1]; [18]", "result": "57.2 ± 4.0", "unit": "s"}, {"measurement": "aPTT % Change from baseline", "setting": "[1]; [18]", "result": 83, "unit": "%"}, {"measurement": "time to maximal effect on aPTT after initiation of the IV infusion", "setting": "[1]; part B, day 1", "result": "approximately 2 h"}, {"measurement": "PT/INR change", "setting": "[2]", "result": "did not change; also recorded: no effect on PT/INR"}, {"measurement": "tolerability", "setting": "[3]; 2-h and 5-day IV infusions, healthy subjects", "result": "well tolerated"}, {"measurement": "AE frequency: ecchymosis", "setting": "[3]; BMS-962212 groups", "result": 1.4, "unit": "%"}, {"measurement": "AE frequency: flatulence", "setting": "[3]; BMS-962212 groups", "result": 1.4, "unit": "%"}, {"measurement": "AE frequency: headache", "setting": "[3]; BMS-962212 groups", "result": 2.9, "unit": "%"}, {"measurement": "AE frequency: infusion site pain or irritation", "setting": "[3]; BMS-962212 groups", "result": 5.9, "unit": "%"}, {"measurement": "AE frequency: nausea", "setting": "[3]; BMS-962212 groups", "result": 2.9, "unit": "%"}, {"measurement": "AE frequency: upper respiratory tract infection", "setting": "[3]; BMS-962212 groups", "result": 2.9, "unit": "%"}, {"measurement": "frequency of AEs", "setting": "[3]; Japanese subjects", "result": 17.6, "unit": "%"}, {"measurement": "subjects reporting AEs", "setting": "[3]; all subjects assigned to BMS-962212 (12 of 68)", "result": 17.6, "unit": "%"}, {"measurement": "maximum tolerated dose", "setting": "[3]; no dose-limiting AEs observed", "result": "not established"}, {"measurement": "frequency of AEs", "setting": "[3]; non-Japanese subjects", "result": 29.4, "unit": "%"}, {"measurement": "subjects reporting AEs", "setting": "[3]; part A, subjects assigned to BMS-962212 (four of 34)", "result": 11.7, "unit": "%"}, {"measurement": "subjects reporting AEs", "setting": "[3]; part B, subjects assigned to BMS-962212 (eight of 34)", "result": 23.5, "unit": "%"}, {"measurement": "bleeding", "setting": "[3]; parts A and B", "result": "no signs of bleeding"}, {"measurement": "deaths or serious AEs", "setting": "[3]; parts A and B", "result": "No deaths or serious AEs were reported"}, {"measurement": "iohexol plasma clearance (GFR)", "setting": "[4]; panel 1A, 1.5 mg h^−1 2-h IV infusion, day −2 vs day 1, and vs placebo", "result": "No clinically relevant differences"}, {"measurement": "serum creatinine mean increase", "setting": "[4]; [19]", "result": 0.28, "unit": "mg/dL"}, {"measurement": "serum creatinine median increase", "setting": "[4]; [19]", "result": 0.35, "unit": "mg/dL"}, {"measurement": "mean percentage decrease in eGFR (based on serum creatinine)", "setting": "[4]; part A panel 1, 1.5 mg h^−1, 12 h postdose", "result": "−22.58", "unit": "%"}, {"measurement": "antithrombotic efficacy and haemostasis", "setting": "[5]", "result": "shows antithrombotic efficacy at doses which preserve haemostasis"}, {"measurement": "Tmax", "setting": "[6]", "result": "1 to 2", "unit": "h"}, {"measurement": "half-life", "setting": "[6]; 1 mg, t 1/2, part B 1 mg h^−1, Japanese ethnicity (n = 4), mean (CV%)", "result": 7.32, "unit": "h"}, {"measurement": "half-life", "setting": "[6]; 1 mg, t 1/2, part B 1 mg h^−1, Non-Japanese ethnicity (n = 4), mean (CV%)", "result": 5.3, "unit": "h"}, {"measurement": "half-life", "setting": "[6]; 3 mg, t 1/2, part B 3 mg h^−1, Japanese ethnicity (n = 4), mean (CV%)", "result": 6.42, "unit": "h"}, {"measurement": "half-life", "setting": "[6]; 3 mg, t 1/2, part B 3 mg h^−1, Non-Japanese ethnicity (n = 4), mean (CV%)", "result": 6.05, "unit": "h"}, {"measurement": "half-life", "setting": "[6]; 9 mg, t 1/2, part B 9 mg h^−1, Japanese ethnicity (n = 4), mean (CV%)", "result": 8.28, "unit": "h"}, {"measurement": "half-life", "setting": "[6]; 9 mg, t 1/2, part B 9 mg h^−1, Non-Japanese ethnicity (n = 4), mean (CV%)", "result": 8.32, "unit": "h"}, {"measurement": "half-life", "setting": "[6]; 20 mg, t 1/2, part B 20 mg h^−1, Japanese ethnicity (n = 4), mean (CV%)", "result": 8.28, "unit": "h"}, {"measurement": "half-life", "setting": "[6]; 20 mg, t 1/2, part B 20 mg h^−1, Non-Japanese ethnicity (n = 4), mean (CV%)", "result": 7.23, "unit": "h"}, {"measurement": "AUC(0-inf)", "setting": "[6]; iv, 1 mg h^−1", "result": 6380, "unit": "ng·h/mL"}, {"measurement": "AUC(0-t)", "setting": "[6]; iv, 1 mg h^−1", "result": 6300, "unit": "ng·h/mL"}, {"measurement": "Cmax", "setting": "[6]; iv, 1 mg h^−1", "result": 58.3, "unit": "ng/mL"}, {"measurement": "Tmax", "setting": "[6]; iv, 1 mg h^−1", "result": 24, "unit": "h"}, {"measurement": "clearance", "setting": "[6]; iv, 1 mg h^−1, CL, part B 5-day IV infusion 1 mg h^−1, geometric mean (CV%)", "result": 314, "unit": "mL/min"}, {"measurement": "Vd", "setting": "[6]; iv, 1 mg h^−1, Vz, part B 5-day IV infusion 1 mg h^−1, geometric mean (CV%)", "result": 188, "unit": "L"}, {"measurement": "half-life", "setting": "[6]; iv, 1 mg h^−1, t1/2, part B 5-day IV infusion 1 mg h^−1, geometric mean (CV%)", "result": 6.25, "unit": "h"}, {"measurement": "AUC(0-inf)", "setting": "[6]; iv, 1.5 mg h^−1", "result": 180, "unit": "ng·h/mL"}, {"measurement": "AUC(0-t)", "setting": "[6]; iv, 1.5 mg h^−1", "result": 122, "unit": "ng·h/mL"}, {"measurement": "Cmax", "setting": "[6]; iv, 1.5 mg h^−1", "result": 81.9, "unit": "ng/mL"}, {"measurement": "Tmax", "setting": "[6]; iv, 1.5 mg h^−1", "result": 1.5, "unit": "h"}]}
